Reference: patent US6395896B2, “Pyridazine derivatives, manufacturing method and related composition” (Shiseido Co., Ltd., priority 1999, dated 2002)

Columns and labels:
[1] = Drug stabilization effect (photostabilizer, sunlight exposure); set-up: key to Sunlight exposure (80 MJ) Appearance: A: No change; B: No almost change; C: Yes change; conditions: photostabilizer 0.05, amounts wt %
Protocol: Next, the photo stabilization effect and changes in appearance in drug compositions were studied according to the following evaluation formulation.
Each test sample was prepared. Appearance changes of the samples exposed to sunlight (80 MJ) was observed (visual evaluation). Also, residual yield was measured by liquid chromatography.

[2] = Perfume stabilization effect (photostabilizer, sunlight exposure, judgement by perfumier); set-up: key to Sunlight exposure (80 MJ) Smell evaluation / Sunlight exposure (80 MJ) evaluation: A: No change; B: No almost change; C: Yes change
Protocol: Next, the photostabilization effect for each perfume was studied by the following evaluation formulation.
Each test sample was prepared. Change of smell of sample exposed to sunlight (80 MJ) was observed (judgement by perfumier).

[3] = Colorant stabilization effect (photostabilizer, sunlight exposure); set-up: key to Sunlight exposure (80 MJ) Appearance: A: No change; B: No almost change; C: Yes change; key to Sunlight exposure (80 MJ) ΔE: ΔE color difference (Lab) vs. color before sunlight exposure; conditions: photostabilizer 0.05 wt %
Protocol: First of all, the photostabilization effect and appearance change of a composition in each pigment were studied by the following evaluation formulation.
Each test sample was prepared. Observation of appearance change (visual evaluation) and measurement of color difference (ΔE) were carried out in samples exposed to sunlight exposure (around 80 MJ).
Color difference was measured by Lab coordinate system with spectrophotometer. Color difference was calculated on the basis of the color before sunlight exposure. Namely, from measured value (L1,a1,b1) before sunlight exposure, color difference (ΔE) was calculated by following formula.

[4] = drug 2-o-α-α-glucopyranosyl-L-ascorbic acid 2.0
[5] = drug Dibutylhydroxytoluene 0.01
[6] = drug Dipotassium glycyrrhizinate 0.05
[7] = drug L-ascorbic acid 2-(dl-α-tocopheryl hydrogen phosphate) potassium salt 0.01
[8] = Base perfume Fruity 0.03 wt %, photostabilizer 0.1 wt %
[9] = Base perfume Muguet 0.03 wt %, photostabilizer 0.05 wt %
[10] = Base perfume Rose 0.03 wt %, photostabilizer 0.05 wt %
[11] = Base perfume Spicy 0.03 wt %, photostabilizer 0.2 wt %
[12] = Base perfume Woody 0.03 wt %, photostabilizer 0.1 wt %
[13] = Natural perfume Jasmine oil 0.03 wt %, photostabilizer 0.05 wt %
[14] = Natural perfume Lavender oil 0.03 wt %, photostabilizer 0.1 wt %
[15] = Natural perfume Neroli oil 0.03 wt %, photostabilizer 0.1 wt %
[16] = Natural perfume Rose oil 0.03 wt %, photostabilizer 0.05 wt %
[17] = Natural perfume Ylang ylang oil 0.03 wt %, photostabilizer 0.2 wt %
[18] = Synthetic perfume Citral 0.03 wt %, photostabilizer 0.1 wt %
[19] = Synthetic perfume Limonene 0.03 wt %, photostabilizer 0.05 wt %
[20] = Synthetic perfume Linalool 0.03 wt %, photostabilizer 0.05 wt %
[21] = Synthetic perfume Linalyl acetate 0.03 wt %, photostabilizer 0.1 wt %
[22] = Synthetic perfume Rose oxide 0.03 wt %, photostabilizer 0.2 wt %
[23] = Red No. 106 0.00001 wt % + Yellow No. 5 0.0001 wt %
[24] = Red No. 106 0.00001 wt % + Yellow No. 203 0.0001 wt %
[25] = Red No. 213 0.00001 wt % + Blue No. 1 0.00001 wt %
[26] = Red No. 227 0.0001 wt % + Yellow No. 5 0.0001 wt %
[27] = Red No. 227 0.0001 wt % + Yellow No. 203 0.0001 wt %
[28] = Red No. 401 0.0001 wt % + Blue No. 1 0.00001 wt %
[29] = Red No. 401 0.0001 wt % + Green No. 3 0.00001 wt %
[30] = Yellow No. 203 0.0001 wt % + Yellow No. 5 0.0001 wt %

Structure (SMILES): COc1ccc(C(=O)CC(=O)c2ccc(C(C)(C)C)cc2)cc1 [4-tert-Butyl-4′-methoxy-di-benzoylmethane, reference compound]
- Sunlight exposure (80 MJ) Appearance [1, 4]: B
- Sunlight exposure (80 MJ) Residual yield [%] [1, 4]: 97.0%
- Sunlight exposure (80 MJ) Appearance [1, 5]: B
- Sunlight exposure (80 MJ) Residual yield [%] [1, 5]: 95.2%
- Sunlight exposure (80 MJ) Appearance [1, 6]: B
- Sunlight exposure (80 MJ) Residual yield [%] [1, 6]: 96.6%
- Sunlight exposure (80 MJ) Appearance [1, 7]: B
- Sunlight exposure (80 MJ) Residual yield [%] [1, 7]: 94.5%
- Sunlight exposure (80 MJ) Appearance ([1]; drug Salicylic acid 0.1): B
- Sunlight exposure (80 MJ) Residual yield [%] ([1]; drug Salicylic acid 0.1): 97.2%
- Sunlight exposure (80 MJ) Smell evaluation [2, 8]: B
- Sunlight exposure (80 MJ) Smell evaluation [2, 9]: B
- Sunlight exposure (80 MJ) Smell evaluation [2, 10]: B
- Sunlight exposure (80 MJ) Smell evaluation [2, 11]: B
- Sunlight exposure (80 MJ) Smell evaluation [2, 12]: B
- Sunlight exposure (80 MJ) Smell evaluation [2, 13]: B
- Sunlight exposure (80 MJ) Smell evaluation [2, 14]: B
- Sunlight exposure (80 MJ) Smell evaluation [2, 15]: B
- Sunlight exposure (80 MJ) Smell evaluation [2, 16]: B
- Sunlight exposure (80 MJ) Smell evaluation [2, 17]: B
- Sunlight exposure (80 MJ) Smell evaluation [2, 18]: B
- Sunlight exposure (80 MJ) Smell evaluation [2, 19]: B
- Sunlight exposure (80 MJ) Smell evaluation [2, 20]: B
- Sunlight exposure (80 MJ) Smell evaluation [2, 21]: B
- Sunlight exposure (80 MJ) Smell evaluation [2, 22]: B
- Sunlight exposure (80 MJ) Appearance ([3]; Blue No. 1 0.0001 wt %): B
- Sunlight exposure (80 MJ) ΔE ([3]; Blue No. 1 0.0001 wt %): 1.49
- Sunlight exposure (80 MJ) Appearance ([3]; Green No. 3 0.0001 wt %): B
- Sunlight exposure (80 MJ) ΔE ([3]; Green No. 3 0.0001 wt %): 0.62
- Sunlight exposure (80 MJ) Appearance [3, 23]: B
- Sunlight exposure (80 MJ) ΔE [3, 23]: 0.92
- Sunlight exposure (80 MJ) Appearance [3, 24]: B
- Sunlight exposure (80 MJ) ΔE [3, 24]: 1.02
- Sunlight exposure (80 MJ) Appearance ([3]; Red No. 106 0.0001 wt %): B
- Sunlight exposure (80 MJ) ΔE ([3]; Red No. 106 0.0001 wt %): 1.02
- Sunlight exposure (80 MJ) Appearance [3, 25]: B
- Sunlight exposure (80 MJ) ΔE [3, 25]: 1.17
- Sunlight exposure (80 MJ) Appearance ([3]; Red No. 213 0.0001 wt %): B
- Sunlight exposure (80 MJ) ΔE ([3]; Red No. 213 0.0001 wt %): 1.02
- Sunlight exposure (80 MJ) Appearance [3, 26]: B
- Sunlight exposure (80 MJ) ΔE [3, 26]: 0.80
- Sunlight exposure (80 MJ) Appearance [3, 27]: B
- Sunlight exposure (80 MJ) ΔE [3, 27]: 1.12
- Sunlight exposure (80 MJ) Appearance ([3]; Red No. 227 0.0001 wt %): B
- Sunlight exposure (80 MJ) ΔE ([3]; Red No. 227 0.0001 wt %): 0.95
- Sunlight exposure (80 MJ) Appearance [3, 28]: B
- Sunlight exposure (80 MJ) ΔE [3, 28]: 0.93
- Sunlight exposure (80 MJ) Appearance [3, 29]: B
- Sunlight exposure (80 MJ) ΔE [3, 29]: 0.99
- Sunlight exposure (80 MJ) Appearance ([3]; Red No. 401 0.001 wt %): B
- Sunlight exposure (80 MJ) ΔE ([3]; Red No. 401 0.001 wt %): 1.02
- Sunlight exposure (80 MJ) Appearance ([3]; Yellow No. 5 0.001 wt %): B
- Sunlight exposure (80 MJ) ΔE ([3]; Yellow No. 5 0.001 wt %): 0.88
- Sunlight exposure (80 MJ) Appearance [3, 30]: A
- Sunlight exposure (80 MJ) ΔE [3, 30]: 0.48
- Sunlight exposure (80 MJ) Appearance ([3]; Yellow No. 203 0.001 wt %): B
- Sunlight exposure (80 MJ) ΔE ([3]; Yellow No. 203 0.001 wt %): 0.68

Structure (SMILES): CCCCCCCCOC(=O)C=Cc1ccc(OC)cc1 [Octyl p-methoxycinnamate, reference compound]
- Sunlight exposure (80 MJ) Appearance [1, 4]: C
- Sunlight exposure (80 MJ) Residual yield [%] [1, 4]: 92.3%
- Sunlight exposure (80 MJ) Appearance [1, 5]: C
- Sunlight exposure (80 MJ) Residual yield [%] [1, 5]: 71.7%
- Sunlight exposure (80 MJ) Appearance [1, 6]: C
- Sunlight exposure (80 MJ) Residual yield [%] [1, 6]: 90.8%
- Sunlight exposure (80 MJ) Appearance [1, 7]: C
- Sunlight exposure (80 MJ) Residual yield [%] [1, 7]: 82.1%
- Sunlight exposure (80 MJ) Appearance ([1]; drug Salicylic acid 0.1): C
- Sunlight exposure (80 MJ) Residual yield [%] ([1]; drug Salicylic acid 0.1): 92.2%
- Sunlight exposure (80 MJ) Smell evaluation [2, 8]: C
- Sunlight exposure (80 MJ) Smell evaluation [2, 9]: C
- Sunlight exposure (80 MJ) Smell evaluation [2, 10]: C
- Sunlight exposure (80 MJ) Smell evaluation [2, 11]: C
- Sunlight exposure (80 MJ) Smell evaluation [2, 12]: C
- Sunlight exposure (80 MJ) Smell evaluation [2, 13]: C
- Sunlight exposure (80 MJ) Smell evaluation [2, 14]: C
- Sunlight exposure (80 MJ) Smell evaluation [2, 15]: C
- Sunlight exposure (80 MJ) Smell evaluation [2, 16]: C
- Sunlight exposure (80 MJ) Smell evaluation [2, 17]: C
- Sunlight exposure (80 MJ) Smell evaluation [2, 18]: C
- Sunlight exposure (80 MJ) Smell evaluation [2, 19]: C
- Sunlight exposure (80 MJ) Smell evaluation [2, 20]: C
- Sunlight exposure (80 MJ) Smell evaluation [2, 21]: C
- Sunlight exposure (80 MJ) Smell evaluation [2, 22]: C
- Sunlight exposure (80 MJ) Appearance ([3]; Blue No. 1 0.0001 wt %): C
- Sunlight exposure (80 MJ) ΔE ([3]; Blue No. 1 0.0001 wt %): 5.23
- Sunlight exposure (80 MJ) Appearance ([3]; Green No. 3 0.0001 wt %): C
- Sunlight exposure (80 MJ) ΔE ([3]; Green No. 3 0.0001 wt %): 1.64
- Sunlight exposure (80 MJ) Appearance ([3]; Red No. 106 0.0001 wt %): C
- Sunlight exposure (80 MJ) ΔE ([3]; Red No. 106 0.0001 wt %): 1.95
- Sunlight exposure (80 MJ) Appearance ([3]; Red No. 213 0.0001 wt %): C
- Sunlight exposure (80 MJ) ΔE ([3]; Red No. 213 0.0001 wt %): 2.55
- Sunlight exposure (80 MJ) Appearance ([3]; Red No. 227 0.0001 wt %): C
- Sunlight exposure (80 MJ) ΔE ([3]; Red No. 227 0.0001 wt %): 1.22
- Sunlight exposure (80 MJ) Appearance ([3]; Red No. 401 0.001 wt %): C
- Sunlight exposure (80 MJ) ΔE ([3]; Red No. 401 0.001 wt %): 4.76
- Sunlight exposure (80 MJ) Appearance ([3]; Yellow No. 5 0.001 wt %): C
- Sunlight exposure (80 MJ) ΔE ([3]; Yellow No. 5 0.001 wt %): 1.56
- Sunlight exposure (80 MJ) Appearance ([3]; Yellow No. 203 0.001 wt %): C
- Sunlight exposure (80 MJ) ΔE ([3]; Yellow No. 203 0.001 wt %): 2.43
